In publication PMC4450297, “Screening Active Compounds from Garcinia Species Native to China Reveals Novel Compounds Targeting the STAT/JAK Signaling Pathway” (BioMed Research International, 2015):

Columns and labels:
NCI-H1650 = assay: Cell proliferation assay (CellTiter-Glo); type: cell-based, human; conditions: Homo sapiens, NCI-H1650, 72 h, NCI-H1650 cells, 20 μM to 0.009 μM in serial 3-fold dilutions
Experimental: (§1) All cells were obtained from the cell bank of the American Type Culture Collection (ATCC) and cultured in the supplier's recommended media supplemented with 10% FBS. The cell panel screen was measured using the CellTiter-Glo assay (Promega, Madison, WI) following a standard protocol. Briefly, cancer cells were seeded in 96-well plates and cultured overnight at 37°C with or without 5% CO2 in an incubator. Each compound was dissolved with limited DMSO and diluted to a certain concentration with culture medium and then added to the corresponding well of the cell plate. The final concentration of compound was 20 μM. The control cells (without treatment) received the same amount of DMSO and were incubated under the same conditions. After 72 h cultivation, 100 μL of the CellTiter-Glo reagent was added directly to each well for 10-minute incubation. The plate was then read on a FlexStation 3 microplate luminometer (Molecular Devices, USA) to monitor the luminescence signal generated by the luciferase-catalyzed reaction of luciferin and ATP. The percent of growth inhibition was calculated using the following formula: (untreated cells − treated cells)/(untreated cells − background without cells) ∗ 100.
(§2) For proliferation assays, the CellTiter-Glo assay (Promega, Madison, WI) was used to evaluate the proliferation of cancer cells treated with test compounds as described above. Each compound was dissolved in limited DMSO and diluted to various concentrations with culture medium and then added to the corresponding wells. A dose-response curve was plotted, and the IC50 was calculated using XLfit software.

A549 = assay: Cell proliferation assay (CellTiter-Glo); type: cell-based; conditions: Homo sapiens, A549 cells, 72 h
Experimental: as §1, §2

CHP212 = assay: Cell proliferation assay (CellTiter-Glo); type: cell-based; conditions: Homo sapiens, CHP-212, CHP212 cells, 72 h
Experimental: as §1, §2

NCI-H1993 = assay: Cell proliferation assay (CellTiter-Glo); type: cell-based; conditions: Homo sapiens, NCI-H1993 cells, 72 h
Experimental: as §1, §2

NCI-H838 = assay: Cell proliferation assay (CellTiter-Glo); type: cell-based; conditions: Homo sapiens, NCI-H838 cells, 72 h
Experimental: as §1, §2

SW1353 = assay: Cell proliferation assay (CellTiter-Glo); type: cell-based; conditions: Homo sapiens, SW1353 cells, 72 h
Experimental: as §1, §2

SW954 = assay: Cell proliferation assay (CellTiter-Glo); type: cell-based; conditions: Homo sapiens, SW 954, SW954 cells, 72 h
Experimental: as §1, §2

HuVec = assay: Cell proliferation assay (CellTiter-Glo), control cell line; type: cell-based; conditions: Homo sapiens, 72 h
Experimental: as §1, §2

[1] = tested on: STAT3 activation in multiple cancer cell lines; set-up: method as in PMID 21490133; conditions: cited from earlier work

Row | SMILES | IC50 (NCI-H1650) | IC50 (A549) | IC50 (CHP212) | IC50 (NCI-H1993) | IC50 (NCI-H838) | IC50 (SW1353) | IC50 (SW954) | IC50 (HuVec) | STAT3 activation upon IL-6 treatment [1]
1 | CN[C@@H]1C[C@H]2O[C@@](C)([C@@H]1OC)n1c3ccccc3c3c4c(c5c6ccccc6n2c5c31)C(=O)NC4 [Staurosporine, staurosporine, reference compound] | 22 ± 4 nM | 8 ± 2 nM | 4 ± 1 nM | 21 ± 7 nM | 11 ± 4 nM | 4 ± 1 nM | 6 ± 1 nM | 4 ± 2 nM | 
2 | CC(C)=CCC[C@]1(C)C=Cc2c(O)c3c(c(CC=C(C)C)c2O1)O[C@]12C(=C[C@@H]4C[C@H]1C(C)(C)O[C@@]2(C/C=C(/C)C(=O)O)C4=O)C3=O [gambogic acid] |  |  |  |  |  |  |  |  | able to inhibit STAT3 activation
